Data: paper PMC11412900 (Molecular Psychiatry, 2024)
Like-named read-outs stand apart in the source and are kept apart here.

Experiments:
SERT [1] = molecular target: T1, SERT (Homo sapiens, UniProt P31645); assay: Radioligand binding, [3H]imipramine displacement
T1 construct: YFP (yellow-fluorescent protein); expressed in transfected cells
Experimental: Binding assays were performed as described previously. Briefly, membrane preparations expressing h5-HT1AR, h5-HT2AR or hSERT (see Supplementary Material) were incubated with radiolabeled selective ligands 0.4 nM [^3H]8-OH-DPAT, 1 nM [^3H]ketanserin or 3 nM [^3H]imipramine, respectively. The drugs were diluted in the corresponding binding buffer and tested at increasing concentrations in duplicate. Binding reactions were performed in tubes containing the drug dilutions; 25 μl of the corresponding radioligand; and the membranes (10 μg and 5 μg/500 μL for 5-HT1AR and 5-HT2AR, respectively, and 15 μg/100 μL for hSERT), all diluted in binding buffer. […] Incubation was performed for 1 h at 27 °C for 5-HT1A/2AR and 22 °C for hSERT, according to the manufacturer’s protocol (Perkin Elmer, Inc., Waltham, MA, USA) and previous studies - saturation and kinetic experiments, respectively. The binding reactions were stopped by rapid filtration through GF/B glass microfiber filters pre-soaked with 0.5% polyethyleneimine and washing with ice-cold wash buffer. The filters were placed into vials and scintillation cocktail was added. The trapped radioactivity was quantified. Specific binding was defined as the difference between total binding (binding buffer alone) and non-specific binding. Experiments were conducted per duplicate for at least three independent experiments.
(§1) The generation and maintenance of HEK293 cells stably expressing the yellow-fluorescent protein (YFP)-tagged version of the human isoform of SERT (hSERT) (Perkin Elmer, Waltham, MA, USA) was carried out as described previously. For uptake inhibition and batch release assays, cells were seeded onto previously poly-D-lysine (PDL)-coated 96-well plates at a density of 0.036 million cells per well [5]. For superfusion release assays, cells were seeded onto a previously coated with PDL 6 channel µ-slide at a density of 0.08 million cells per channel. Prior to patching, cells were grown in DMEM containing 10% FBS, Zeocin (150 µg/mL) and Blasticidin (6 µg/mL) for positive selection of transporter-expressing clones. The cells were seeded at a low density on PDL-coated 35 mm plates 24-48 hr prior to patching. For membrane preparation, HEK293 cells expressing hSERT transporters were harvested from 80–90% confluent dishes as described elsewhere. Protein concentration was determined using the Bio-RadProtein Reagent (Bio Rad Laboratories, Hercules, CA, USA). Membrane preparations were stored at −80°C until use. Generation and maintenance of CHO-K1 cells expressing the human isoform of 5-HT2AR (h5-HT2AR) was carried out as described in the manufacturer’s protocol (Perkin Elmer, Waltham, MA, USA). Routine DAPI-Staining assays tested negative in mycoplasma contamination.

SERT [2] = molecular target: T1, SERT; assay: [3H]5-HT uptake inhibition in HEK293 cells expressing hSERT; assay type: cell-based
Experimental: See the Supplementary Material for cell culture procedures. The medium was removed from each well and replaced with 200 μL/well of Krebs-HEPES-Buffer (KHB). The cells were pre-incubated for 5 min with different concentrations of drug in KHB at 50 μL/well. […] The incubation solution was aspirated and the cells were washed with ice-cold KHB and lysed with 1% sodium dodecyl sulfate (SDS). The lysate was collected into vials and scintillation liquid was added. The radioactivity was quantified using a beta-scintillation counter (Perkin Elmer, Waltham, MA, USA). Non-specific uptake was determined in the presence of 30 μM paroxetine. Data were expressed as percentage of control uptake (absence of tryptamine).
as §1

[3] = tested on: head twitch response in mice; assay: Head twitch response (HTR); assay type: in vivo; settings: mice, i.p.; for HTR Emax (95% CI): 10-min period
Experimental: HTR studies were adapted from. Mice (N = 8–10 per group) were injected intraperitoneally (i.p.) with saline or the appropriate tryptamine dose (0.3, 1, 3, 10, or 30 mg/kg) and placed into the observation arena (25 × 25 × 40 cm). A camera mounted above the observation cage recorded the mice for the next 10 min after the injection. Another batch of animals (N = 8–10) received subcutaneous injections of either saline or the respective antagonist (WAY100635 1 mg/kg for 5-HT1AR or ketanserin 1 mg/kg for 5-HT2AR). After a 10-min interval, the animals were i.p. injected with the corresponding tryptamine (10 mg/kg) and placed in the observation arena. Animal behavior was recorded for the next 10 min after the last injection, as mentioned before. Video recordings were examined by two blind observers blinded to the treatments, who assessed the number of head twitches, defined as a rapid rotational jerk of the head which is not contiguous with any grooming behavior [39].
Data were expressed as means±standard deviation (SD). Competition, release and functional assays, and substrate-induced current curves were plotted and fitted by non-linear regression to obtain the IC50, EC50, and Emax values. For behavioral studies, data were fitted by non-linear regression and pED50 and Emax values (with the corresponding 95% CI) were estimated by means of a software (GraphPad Prism 10) that further extrapolates the data. The Cheng-Prusoff equation was used to calculate Ki (affinity): Ki = […]/(1 + [radioligand-concentration/Kd]). HTR curves were fitted using a Gaussian equation as described. Data from batch release assays were statistically analyzed with a mixed-effects model, employing Šidák’s correction for multiple comparisons. Total release at each concentration and the behavioral experiments with the corresponding antagonists were statistically analyzed using one-way ANOVA, followed by Tukey’s post-hoc test. Molecular volume (van der Waals) was calculated using a grid approximation (spacing 0.75 Å). logP was calculated using Molinspiration Cheminformatics software. For in vivo studies, one-way ANOVA with Dunnet’s post-hoc test was used to compare all conditions to saline in dose-response experiments when data were normally distributed. Otherwise, a non-parametric test (Kruskall-Wallis with Dunn’s post-hoc test) was used. Alpha was set at 0.05. Outliers were excluded following ROUT’s method (Q = 0.1%). All statistical analyses and Pearson correlations were conducted using GraphPad Prism 10 software (GraphPad software, San Diego, CA, USA).

SERT [4] = molecular target: T1, SERT; assay: Batch release of preloaded [3H]5-HT from HEK293 cells expressing SERT; assay type: cell-based; settings: for 5-HT releasing activity: with or without monensin, pCA as positive control; for 5-HT release at SERT: with or without monensin 10 µM
Experimental: Batch release is a functional radiometric assay to assess transporter-mediated efflux. […] Subsequently, cells were washed three times with KHB and equilibrated for 10 min in KHB or KHB+monensin (10 µM). […] 10 µM pCA and 0.05 µM paroxetine were used as positive and negative controls, respectively. Liquid scintillation cocktail was added both to the wells containing cells (200 µL) and to the transferred supernatant (100 µL). Total radioactivity determined from/in the remaining lysate of the cells plus the transferred supernatant was set as 100%, and the radioactivity determined in each fraction was expressed as a percentage thereof. Assays were performed per duplicate for five independent experiments.

[5] = 3 nM [3H]imipramine, N ≥ 3, read-out: SERT Ki ± SD
[6] = read-out: 5-HT uptake inhibition IC50 ± SD, HEK293 hSERT, N ≥ 3

T1 sequence (P31645 whole entry): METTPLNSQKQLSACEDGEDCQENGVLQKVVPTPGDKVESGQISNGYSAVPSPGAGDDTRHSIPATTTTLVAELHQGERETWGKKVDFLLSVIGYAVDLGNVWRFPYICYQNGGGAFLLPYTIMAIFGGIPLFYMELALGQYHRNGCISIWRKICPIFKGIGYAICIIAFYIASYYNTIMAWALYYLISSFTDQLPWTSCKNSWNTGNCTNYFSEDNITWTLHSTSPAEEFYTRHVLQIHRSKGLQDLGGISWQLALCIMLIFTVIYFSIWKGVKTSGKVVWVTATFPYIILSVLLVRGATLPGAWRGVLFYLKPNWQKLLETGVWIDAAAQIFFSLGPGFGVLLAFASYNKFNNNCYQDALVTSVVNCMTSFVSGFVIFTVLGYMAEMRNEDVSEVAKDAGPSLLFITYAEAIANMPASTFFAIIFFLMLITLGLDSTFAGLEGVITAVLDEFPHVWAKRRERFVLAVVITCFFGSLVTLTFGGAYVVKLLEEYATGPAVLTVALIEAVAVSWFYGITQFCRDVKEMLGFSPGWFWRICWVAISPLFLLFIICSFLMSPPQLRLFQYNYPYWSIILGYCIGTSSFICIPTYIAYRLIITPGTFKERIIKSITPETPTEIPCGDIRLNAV

## C=CCN(CC=C)CCc1c[nH]c2ccc(OC)cc12 [5-MeO-DALT]
SERT [1]; [5]
  Ki: 1190 ± 96 nM
SERT [2]; [6]
  IC50: 22.3 µM
[3]
  HTR Emax (95% CI): 10.4 (8.5–12.4) HTR events
[3]; 10 min after injection
  HTR ED50: 4.16 mg/kg
SERT [4]
  5-HT releasing activity: slight to none 5-HT releasing activity

## CCN(CC)CCc1c[nH]c2ccc(OC)cc12 [5-MeO-DET]
SERT [1]; [5]
  Ki: 10400 nM
SERT [2]; [6]
  IC50: 60 µM
[3]
  HTR Emax (95% CI): 9.73 (7.61–11.85) HTR events
[3]; 10 min after injection
  HTR ED50: 2.32 mg/kg
SERT [4]
  5-HT releasing activity: capable of evoking 5-HT release

## COc1ccc2[nH]cc(CCN(C(C)C)C(C)C)c2c1 [5-MeO-DIPT, 5-methoxy-N,N-diisopropyltryptamine]
SERT [1]
  Ki: 1620 ± 475 nM
SERT [2]
  IC50: 24.2 µM
[3]; Mus musculus, ip, 10 min, 10 min after injection
  ED50: 0.477 mg/kg
[3]
  HTR Emax (95% CI): 10.5 (8.5–12.5) HTR events
SERT [4]
  5-HT releasing activity: slight to none 5-HT releasing activity

## CCN(CCc1c[nH]c2ccc(OC)cc12)C(C)C [5-MeO-EIPT]
SERT [1]; [5]
  Ki: 1780 ± 83 nM
SERT [2]; [6]
  IC50: 22.2 µM
[3]
  HTR Emax (95% CI): 9.27 (7.10–11.44) HTR events
[3]; 10 min after injection
  HTR ED50: 10.6 mg/kg
SERT [4]
  5-HT release at SERT: < 10 % total cpm

## CCN(C)CCc1c[nH]c2ccc(OC)cc12 [5-MeO-MET]
SERT [1]; [5]
  Ki: 7710 ± 3380 nM
SERT [2]; [6]
  IC50: 30.1 µM
[3]
  HTR Emax (95% CI): 28.4 (23.5–33.2) HTR events
[3]; 10 min after injection
  HTR ED50: 2.72 mg/kg
SERT [4]
  5-HT releasing activity: capable of evoking 5-HT release

## COc1ccc2[nH]cc(CCN(C)C(C)C)c2c1 [5-MeO-MIPT]
SERT [1]; [5]
  Ki: 2870 ± 928 nM
SERT [2]; [6]
  IC50: 29.8 µM
[3]
  HTR Emax (95% CI): 14.19 (11.7–16.68) HTR events
[3]; 10 min after injection
  HTR ED50: 0.791 mg/kg
SERT [4]
  5-HT release at SERT: < 10 % total cpm
  5-HT releasing activity: slight to none 5-HT releasing activity

## COc1ccc2[nH]cc(CCN3CCCC3)c2c1 [5-MeO-pyr-T]
SERT [1]; [5]
  Ki: 3010 ± 354 nM
SERT [2]; [6]
  IC50: 2.77 ± 1.43 µM
[3]
  HTR Emax (95% CI): 10.0 (6.9–13.1) HTR events
[3]; 10 min after injection
  HTR ED50: 7.29 mg/kg
SERT [4]
  5-HT releasing activity: capable of evoking 5-HT release
